# Data from US12077503B2, “Substituted cyclic amides and their use as herbicides” (FMC CORPORATION, priority 2015, dated 2024).
# Legend:
# Assay type in all cases: in vivo
# [1] = test system: ivy-leaved morning glory (Ipomoea hederacea); test: Test G Post-Emergence Protocol; settings: Ipomoea, post-emergence, 312 h, read-out: Morningglory, Ivy-leaved damage rating; for pest or weed control at 15.625 g/ha: 15.625 g ai/ha, evaluated after 13 days (100=total damage to plant; 0=no damage to plant); for pest or weed control at 62.5 g/ha: 62.5 g ai/ha; for pest or weed control at 62.5 g/ha / pest or weed control at 250 g/ha: evaluated after 13 days, 100=total damage to plant, 0=no damage to plant; for pest or weed control at 250 g/ha: 250 g ai/ha
# Procedure, shortened: (§1)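 Damage was rated 13 days after treatment from 0 (none) to 100 (plant killed). Compound was applied as a spray at 15.625, 62.5 or 250 g/ha in 50:50 acetone/water containing 0.5% Tween 20, onto 8-day-old potted plants kept in a glasshouse (24/16 °C, 14 h light, 65% humidity).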
# [2] = test system: velvetleaf (Abutilon theophrasti); test: Test G Post-Emergence Protocol; settings: Abutilon theophrasti, post-emergence, 312 h, read-out: Velvetleaf damage rating; for pest or weed control at 15.625 g/ha: 15.625 g ai/ha, evaluated after 13 days (100=total damage to plant; 0=no damage to plant); for pest or weed control at 62.5 g/ha: 62.5 g ai/ha; for pest or weed control at 62.5 g/ha / pest or weed control at 250 g/ha: evaluated after 13 days, 100=total damage to plant, 0=no damage to plant; for pest or weed control at 250 g/ha: 250 g ai/ha
# Procedure, shortened: as §1
# [3] = test system: redroot pigweed (Amaranthus retroflexus); test: Test G Post-Emergence Protocol; settings: Amaranthus retroflexus, post-emergence, 312 h, read-out: Pigweed, Redroot damage rating; for pest or weed control at 15.625 g/ha: 15.625 g ai/ha, evaluated after 13 days (100=total damage to plant; 0=no damage to plant); for pest or weed control at 62.5 g/ha: 62.5 g ai/ha; for pest or weed control at 62.5 g/ha / pest or weed control at 250 g/ha: evaluated after 13 days, 100=total damage to plant, 0=no damage to plant; for pest or weed control at 250 g/ha: 250 g ai/ha
# Procedure, shortened: as §1
# [4] = test system: barnyardgrass (Echinochloa crus-galli); test: Test G Post-Emergence Protocol; settings: Echinochloa crus-galli, post-emergence, 312 h, read-out: Barnyardgrass damage rating; for pest or weed control at 15.625 g/ha: 15.625 g ai/ha, evaluated after 13 days (100=total damage to plant; 0=no damage to plant); for pest or weed control at 62.5 g/ha: 62.5 g ai/ha; for pest or weed control at 62.5 g/ha / pest or weed control at 250 g/ha: evaluated after 13 days, 100=total damage to plant, 0=no damage to plant; for pest or weed control at 250 g/ha: 250 g ai/ha
# Procedure, shortened: as §1
# corn (Zea mays) [5] = test: Test G Post-Emergence Protocol; settings: Zea mays, post-emergence, 312 h, read-out: Corn damage rating; for plant injury at 15.625 g/ha: 15.625 g ai/ha, evaluated after 13 days (100=total damage to plant; 0=no damage to plant); for plant injury at 62.5 g/ha: 62.5 g ai/ha; for plant injury at 62.5 g/ha / plant injury at 250 g/ha: evaluated after 13 days, 100=total damage to plant, 0=no damage to plant; for plant injury at 250 g/ha: 250 g ai/ha
# Procedure, shortened: as §1
# [6] = test system: giant foxtail (Setaria faberi); test: Test G Post-Emergence Protocol; settings: Setaria faberi, post-emergence, 312 h, read-out: Foxtail, Giant damage rating; for pest or weed control at 15.625 g/ha: 15.625 g ai/ha, evaluated after 13 days (100=total damage to plant; 0=no damage to plant); for pest or weed control at 62.5 g/ha: 62.5 g ai/ha; for pest or weed control at 62.5 g/ha / pest or weed control at 250 g/ha: evaluated after 13 days, 100=total damage to plant, 0=no damage to plant; for pest or weed control at 250 g/ha: 250 g ai/ha
# Procedure, shortened: as §1
# [7] = test system: ivy-leaved morning glory (Ipomoea hederacea); test: Test G Pre-Emergence Protocol; settings: Ipomoea, pre-emergence, 312 h, evaluated after 13 days; for pest or weed control at 15.625 g/ha: 15.625 g ai/ha; for pest or weed control at 15.625 g/ha / pest or weed control at 250 g/ha: read-out: Morningglory, Ivy-leaved damage rating (100=total damage to plant; 0=no damage to plant); for pest or weed control at 62.5 g/ha: 62.5 g ai/ha, 100=total damage to plant, 0=no damage to plant, read-out: Morningglory, Ivy-leaved damage rating; for pest or weed control at 250 g/ha: 250 g ai/ha
# Procedure, shortened: (§2)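 Visual injury (0–100) at day 13 after a single pre-emergence spray. Rates: 15.625, 62.5, 250 g/ha in acetone–water 50:50 with 0.5% Tween 20. Growth conditions: 24/16° C, 14 h light, 65% humidity.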
# [8] = test system: velvetleaf (Abutilon theophrasti); test: Test G Pre-Emergence Protocol; settings: Abutilon theophrasti, pre-emergence, 312 h, evaluated after 13 days; for pest or weed control at 15.625 g/ha: 15.625 g ai/ha; for pest or weed control at 15.625 g/ha / pest or weed control at 250 g/ha: read-out: Velvetleaf damage rating (100=total damage to plant; 0=no damage to plant); for pest or weed control at 62.5 g/ha: 62.5 g ai/ha, 100=total damage to plant, 0=no damage to plant, read-out: Velvetleaf damage rating; for pest or weed control at 250 g/ha: 250 g ai/ha
# Procedure, shortened: as §2
# [9] = test system: redroot pigweed (Amaranthus retroflexus); test: Test G Pre-Emergence Protocol; settings: Amaranthus retroflexus, pre-emergence, 312 h, evaluated after 13 days; for pest or weed control at 15.625 g/ha: 15.625 g ai/ha; for pest or weed control at 15.625 g/ha / pest or weed control at 250 g/ha: read-out: Pigweed, Redroot damage rating (100=total damage to plant; 0=no damage to plant); for pest or weed control at 62.5 g/ha: 62.5 g ai/ha, 100=total damage to plant, 0=no damage to plant, read-out: Pigweed, Redroot damage rating; for pest or weed control at 250 g/ha: 250 g ai/ha
# Procedure, shortened: as §2
# [10] = test system: barnyardgrass (Echinochloa crus-galli); test: Test G Pre-Emergence Protocol; settings: Echinochloa crus-galli, pre-emergence, 312 h, evaluated after 13 days; for pest or weed control at 15.625 g/ha: 15.625 g ai/ha; for pest or weed control at 15.625 g/ha / pest or weed control at 250 g/ha: read-out: Barnyardgrass damage rating (100=total damage to plant; 0=no damage to plant); for pest or weed control at 62.5 g/ha: 62.5 g ai/ha, 100=total damage to plant, 0=no damage to plant, read-out: Barnyardgrass damage rating; for pest or weed control at 250 g/ha: 250 g ai/ha
# Procedure, shortened: as §2
# corn (Zea mays) [11] = test: Test G Pre-Emergence Protocol; settings: Zea mays, pre-emergence, 312 h, evaluated after 13 days; for plant injury at 15.625 g/ha: 15.625 g ai/ha; for plant injury at 15.625 g/ha / plant injury at 250 g/ha: read-out: Corn damage rating (100=total damage to plant; 0=no damage to plant); for plant injury at 62.5 g/ha: 62.5 g ai/ha, 100=total damage to plant, 0=no damage to plant, read-out: Corn damage rating; for plant injury at 250 g/ha: 250 g ai/ha
# Procedure, shortened: as §2
# [12] = test system: giant foxtail (Setaria faberi); test: Test G Pre-Emergence Protocol; settings: Setaria faberi, pre-emergence, 312 h, evaluated after 13 days; for pest or weed control at 15.625 g/ha: 15.625 g ai/ha; for pest or weed control at 15.625 g/ha / pest or weed control at 250 g/ha: read-out: Foxtail, Giant damage rating (100=total damage to plant; 0=no damage to plant); for pest or weed control at 62.5 g/ha: 62.5 g ai/ha, 100=total damage to plant, 0=no damage to plant, read-out: Foxtail, Giant damage rating; for pest or weed control at 250 g/ha: 250 g ai/ha
# Procedure, shortened: as §2
Compound,pest or weed control at 15.625 g/ha [1] [%],pest or weed control at 62.5 g/ha [1] [%],pest or weed control at 250 g/ha [1] [%],pest or weed control at 15.625 g/ha [2] [%],pest or weed control at 62.5 g/ha [2] [%],pest or weed control at 250 g/ha [2] [%],pest or weed control at 15.625 g/ha [3] [%],pest or weed control at 62.5 g/ha [3] [%],pest or weed control at 250 g/ha [3] [%],pest or weed control at 15.625 g/ha [4] [%],pest or weed control at 62.5 g/ha [4] [%],pest or weed control at 250 g/ha [4] [%],plant injury at 15.625 g/ha (corn (Zea mays) [5]) [%],plant injury at 62.5 g/ha (corn (Zea mays) [5]) [%],plant injury at 250 g/ha (corn (Zea mays) [5]) [%],pest or weed control at 15.625 g/ha [6] [%],pest or weed control at 62.5 g/ha [6] [%],pest or weed control at 15.625 g/ha [7] [%],pest or weed control at 62.5 g/ha [7] [%],pest or weed control at 250 g/ha [7] [%],other results
COc1cc(C2CN(C)C(=O)C2C(=O)Nc2cccc(F)c2F)cc(Cl)c1OC (centres unmarked) [Compound 1704],30,20,70,0,0,20,0,10,10,40,70,80,0,20,80,70,80,0,0,30,pest or weed control at 250 g/ha [6]: 80%; pest or weed control at 15.625 g/ha [8]: 0%; pest or weed control at 62.5 g/ha [8]: 0%; pest or weed control at 250 g/ha [8]: 10%; pest or weed control at 15.625 g/ha [9]: 0%; pest or weed control at 62.5 g/ha [9]: 20%; pest or weed control at 250 g/ha [9]: 0%; pest or weed control at 15.625 g/ha [10]: 40%; pest or weed control at 62.5 g/ha [10]: 70%; pest or weed control at 250 g/ha [10]: 80%; plant injury at 15.625 g/ha (corn (Zea mays) [11]): 0%; plant injury at 62.5 g/ha (corn (Zea mays) [11]): 50%; plant injury at 250 g/ha (corn (Zea mays) [11]): 80%; pest or weed control at 15.625 g/ha [12]: 50%; pest or weed control at 62.5 g/ha [12]: 80%; pest or weed control at 250 g/ha [12]: 80%
COc1cc(C2CN(C)C(=O)C2C(=O)Nc2cccc(F)c2F)cc(F)c1F (centres unmarked) [Compound 1706],20,0,60,0,20,20,0,10,20,40,60,80,0,0,70,70,80,0,0,0,pest or weed control at 250 g/ha [6]: 80%; pest or weed control at 15.625 g/ha [8]: 0%; pest or weed control at 62.5 g/ha [8]: 0%; pest or weed control at 250 g/ha [8]: 10%; pest or weed control at 15.625 g/ha [9]: 0%; pest or weed control at 62.5 g/ha [9]: 0%; pest or weed control at 250 g/ha [9]: 20%; pest or weed control at 15.625 g/ha [10]: 40%; pest or weed control at 62.5 g/ha [10]: 60%; pest or weed control at 250 g/ha [10]: 80%; plant injury at 15.625 g/ha (corn (Zea mays) [11]): 0%; plant injury at 62.5 g/ha (corn (Zea mays) [11]): 10%; plant injury at 250 g/ha (corn (Zea mays) [11]): 40%; pest or weed control at 15.625 g/ha [12]: 50%; pest or weed control at 62.5 g/ha [12]: 70%; pest or weed control at 250 g/ha [12]: 90%
COc1c(C)cc(C2CN(C)C(=O)C2C(=O)Nc2cccc(F)c2F)cc1C (centres unmarked) [Compound 1707],40,40,70,0,20,30,0,0,0,70,70,80,60,70,80,80,80,0,10,30,pest or weed control at 15.625 g/ha [8]: 10%; pest or weed control at 62.5 g/ha [8]: 10%; pest or weed control at 250 g/ha [8]: 60%; pest or weed control at 15.625 g/ha [9]: 20%; pest or weed control at 62.5 g/ha [9]: 20%; pest or weed control at 250 g/ha [9]: 40%; pest or weed control at 15.625 g/ha [10]: 70%; pest or weed control at 62.5 g/ha [10]: 80%; pest or weed control at 250 g/ha [10]: 90%; plant injury at 15.625 g/ha (corn (Zea mays) [11]): 20%; plant injury at 62.5 g/ha (corn (Zea mays) [11]): 80%; plant injury at 250 g/ha (corn (Zea mays) [11]): 80%; pest or weed control at 15.625 g/ha [12]: 80%; pest or weed control at 62.5 g/ha [12]: 90%; pest or weed control at 250 g/ha [12]: 90%
